Measurements reported in patent US9687845B2, “Self-loading microfluidic device and methods of use” (Wisconsin Alumni Research Foundation, priority 2011, dated 2017).
Structures can show the parent of a compound that is named as a salt. Where two headings read alike, the source gives them in different places.

How the values were obtained:
E. coli (UT189) [1] = assay: Growth in sugars, microfluidic device (phenol red colour change); note: key: + indicates growth; − indicates no growth; assay type: cell-based; details: E. coli (UT189); sugar 1% (w/v), LB with 0.05% phenol red pH 8.2
Experimental: (§1) Self-loading microfluidic devices were prepared as described above. Reaction wells were filled with different sugar solutions including (1) cellbiose, (2) glycerol, (3) lactose, (4) mannitol, (5) mannose, (6) raffinose, (7) sucrose, (8) trehalose, (9) xylose, and (10) control (no sugar) (FIG. 28). The final concentration of the sugar in each chamber was 1% (w/v). After loading the sugar solutions, the liquid was evaporated as described above. The devices were then assembled and degassed by vacuum.
(§2) Cultures of A. baumannii-1, A. baumannii-2, K. pneumoniea-1, K. pneumoniea-2, S. aureus-1, S. aureus-2, E. coli (UT189), E. faecalis-1, E. faecalis-2, V. cholerae-1, and (11) V. cholerae-2 were grown for 15 hours in LB (pH 7.0). The cultures were then diluted at a ratio of 1:50 in LB containing 0.05% (w/v) phenol red (pH8.2) and added to individual devices using degas-driven flow. Growth of bacteria results in a pH change of the LB that causes a color change from red (illustrated in FIGS. 29 and 30 as filled chambers) to yellow (illustrated in FIGS. 29 and 30 as hatched chambers).

E. faecalis [2] = assay: as above; assay type: cell-based; details: E. faecalis-1 and E. faecalis-2; by 18 hours of incubation
Experimental: as §1, §2

K. pneumoniae [3] = assay: as above; assay type: cell-based; details: for Growth, Device: K. pneumoniae, sugar 1% (w/v), LB with 0.05% phenol red pH 8.2; for growth in device chamber: K. pneumoniea-1 and K. pneumoniea-2, by 4 hours of incubation
Experimental: as §1, §2

S. aureus [4] = assay: as above; assay type: cell-based; details: for growth in device chamber: S. aureus-1, by 8 hours of incubation; for Growth, Device: S. aureus, sugar 1% (w/v), LB with 0.05% phenol red pH 8.2
Experimental: as §1, §2

V. cholerae = assay: as above; assay type: cell-based; details: V. cholerae-1 and V. cholerae-2; by 4 hours of incubation
Experimental: as §1, §2

E. coli (UT189) [5] = assay: Growth in sugars, culture tubes; assay type: cell-based
Text: (§3) Results observed in microfluidic devices are illustrated in FIGS. 29A-F and 30A-E. The predicted growth as compared to devices and culture tubes are summarized in Table 2.

E. faecalis [6] = assay: Growth in sugars, culture tubes; assay type: cell-based
Text: as §3

K. pneumoniae [7] = assay: Growth in sugars, culture tubes; assay type: cell-based
Text: as §3

S. aureus [8] = assay: Growth in sugars, culture tubes; assay type: cell-based; details: culture tubes; note: key: + indicates growth; − indicates no growth
Text: as §3

E. faecalis [9] = details: cited from earlier work
S. aureus [10] = details: cited from earlier work
E. coli (UT189) [11] = details: cited from earlier work
E. coli (MG1655) [12] = assay: MIC measurement using the self-loading microfluidic device; assay type: cell-based; details: for MIC, Device: E. coli, 18 h at 35° C., CAMBH pH 8.2 with 1% glucose and 0.05% phenol red, dilution series 0.5-1024 μg/mL
Experimental: (§4) Minor adjustments were made to procedures mimicking the CLSI guidelines to perform MIC measurements using microfluidic devices prepared as described above. Antibiotic stock solutions (10 mg/mL in sterile deionized water) of vancomycin hydrochloride, tetracycline hydrochloride, and kanamycin monosulfate were used to prepare a 1:10 dilution series. Appropriate amounts of these dilutions were added to sterile deionized water to create a two-fold dilution series that varied from 0.5-1024 μg/mL. Antibiotic solution (2.94 μL) was added to each chamber with the lowest antibiotic concentration located closest to the inlet port and the highest antibiotic concentration located in the chamber closest to the vacuum well. After antibiotic loading, the device was placed in a laminar flow hood to evaporate the liquid. After the liquid was evaporated, the device was assembled by placing the layer of PDMS forming the channel section over the chamber layer containing the dried antibiotic such that the channels connected the chambers. The assembled device was then placed under vacuum.
(§5) The standardized culture was then diluted 1:200 in CAMBH media, pH 8.2 supplemented with 1% glucose and 0.05% phenol red to provide a colorimetric change upon growth. The device was removed from the vacuum and 20 μL of cell suspension was pipetted onto the inlet port. […] Bacterial growth changed the pH of the liquid nutrient media containing the indicator phenol red, and produced a visible color change that was used to identify the cell growth in chambers.

E. faecalis (1131) [13] = assay: as above; assay type: cell-based; details: 18 h at 35° C., CAMBH pH 8.2 with 1% glucose and 0.05% phenol red, dilution series 0.5-1024 μg/mL
Experimental: as §4, §5

K. pneumoniae [14] = assay: as above; assay type: cell-based; details: 18 h at 35° C., CAMBH pH 8.2 with 1% glucose and 0.05% phenol red, dilution series 0.5-1024 μg/mL
Experimental: as §4, §5

P. mirabilis (HI4320) [15] = assay: as above; assay type: cell-based; details: 18 h at 35° C., CAMBH pH 8.2 with 1% glucose and 0.05% phenol red, dilution series 0.5-1024 μg/mL
Experimental: as §4, §5

E. faecalis (1131) [16] = assay: Off-chip MIC, broth dilution method according to CLSI protocols; assay type: cell-based; set-up: unit not given beside the values; details: CAMHB, 20 h at 35° C. (vancomycin 24 h)
Experimental: (§6) Off-chip MIC assays using the broth dilution method according to CLSI protocols were performed as control experiments and to validate experimental data obtained with the microfluidic device.

P. mirabilis (HI4320) [17] = assay: as above; assay type: cell-based; set-up: unit not given beside the values; details: CAMHB, 20 h at 35° C.
Experimental: as §6

K. pneumoniae [18] = assay: as above; assay type: cell-based; details: CAMHB, 20 h at 35° C.
Experimental: as §6

E. coli (MG1655) [19] = assay: as above; assay type: cell-based; set-up: MIC, Broth: unit not given beside the values; details: for MIC, Broth: E. coli, broth dilution, CAMHB, 20 h at 35° C.
Experimental: as §6

[20] = tested on: kanamycin-resistant strain of E. coli MG1655; assay: Susceptibility to multiple antibiotics on a single microfluidic device using breakpoint values; assay type: cell-based; details: 18 h; for effect on growth of the strain: vancomycin 2, 4, 8 μg/mL, tetracycline 0.5, 1, 2 μg/mL, kanamycin 1, 2, 4 μg/mL
Text: In this Example, a single microfluidic device was used to simultaneously test the susceptibility of the kanamycin-resistant strain of E. coli MG1655 described above to multiple antibiotics using breakpoint values.
In clinical microbiology, a strain is classified as susceptible, intermediate, or resistant based on the relationship of the MIC of an antibiotic to specified ‘breakpoint’ values. Breakpoint values are set by organizations, such as the CLSI, and take into consideration MIC values of wild type strains, pharmacokinetic/pharmacodynamic data, and clinical outcomes. Breakpoint values are available for specific clinically relevant pairings of bacterial species and antibiotics and enable clinical decisions without knowing the exact MIC value.
Specifically, vancomycin, tetracycline, and kanamycin were added to the reaction wells of a single device. The most common breakpoints for vancomycin (susceptible <2 μg/mL, resistant >2 μg/mL), tetracycline (susceptible <1 μg/mL, intermediate=2 μg/mL, resistant >2 μg/mL), and gentamicin (susceptible <2 μg/mL, intermediate=4 μg/mL, resistant >4 μg/mL) were used. As there are no published breakpoints available for kanamycin, the breakpoint values for the structurally related aminoglycoside, gentamicin, against aerobic bacteria was used. A microfluidic device with ten chambers was prepared as described in Example 1 above. The ten chambers were divided into three chambers for each antibiotic vancomycin (2, 4, 8 μg/mL), tetracycline (0.5, 1, 2 μg/mL), and kanamycin (1, 2, 4 μg/mL) and one chamber for a control containing no antibiotic.

[21] = tested on: kanamycin-resistant E. coli strain (from MG1655); assay: microbe, parasite or virus in culture; details: Escherichia coli, MG1655, 18 h, read-out: MIC of the resistant strain
Experimental: Specifically, 100 μL of an overnight culture of E. coli MG1655 were plated on LB agar plates supplemented with 16 μg/mL kanamycin; the antibiotic concentration was ˜2× the MIC of kanamycin measured against E. coli MG1655. […] One of these colonies was characterized for its sensitivity to kanamycin in the microfluidic device. The kanamycin-resistant strain was compared to the wild type parent strain.
The devices were assembled and placed under vacuum for degassing. After the devices were removed from the vacuum, an aliquot (20 μL) of a suspension of cells of the resistant strain was introduced into the inlet port of one device and an aliquot (20 μL) of a suspension of cells of the wild type strain was introduced into the inlet port of the second device. Degas-driven flow filled and isolated the samples in the chambers. The devices were incubated for 18 h at 35° C. in a humidified incubator.
To eliminate external equipment needed for interpreting the test results, a pH sensor was incorporated to indicate cell growth. Specifically, the pH indicator phenol red (0.05% w/v) and glucose (1% w/v) were added to CAMHB media and adjusted the pH to 8.2. Phenol red was selected as it produces a distinct color change close to neutral pH and is not absorbed by PDMS. At the initial pH of the nutrient media, pH 8.2, phenol red appears bright red. […]

[22] = tested on: kanamycin-resistant E. coli strain (from MG1655); assay: microbe, parasite or virus in culture; details: Escherichia coli, MG1655, read-out: MIC of the resistant strain, control broth dilution
Experimental: A 1:10 dilution series of the stock solutions in cation-adjusted Mueller-Hinton broth (CAMHB) was prepared and added to CAMBH (pH 7.3) to create a two-fold series dilution in which the total volume was 1 mL. Cell solutions of E. faecalis (1131), P. mirabilis (HI4320), K. pneumoniae, and E. coli (MG1655) were prepared in 13×100 mm tubes by adjusting the concentration of cells in overnight cultures to match the turbidity of a 0.5 McFarland standard (˜10^8 CFU/mL) using CAMHB. The solutions were diluted 100-fold in CAMHB and 1 mL of the suspension was added to 1 mL of antibiotic solution—prepared as described above—to yield a final cell concentration of ˜5×10^5 CFU/mL. The cultures were incubated for 20 h in a humidified incubator at 35° C. (no shaking) with the exception of experiments with vancomycin and E. faecalis, which were incubated for 24 h according to CLSI protocols. The MIC was determined as the lowest concentration of antibiotic at which no growth was visible after incubation.
Thus, the MIC of the kanamycin-resistant E. coli strain and the susceptible strain was determinable by visually identifying the chamber containing the lowest concentration of kanamycin in which the pH indicator remained red.
Throughout, for Growth, Predicted: key: + indicates growth; − indicates no growth.

Question: Which “Growth, Device” value (E. coli (UT189) [1]) does the source give for OC[C@H]1O[C@@](CO)(O[C@H]2O[C@H](CO)[C@@H](O)[C@H](O)[C@H]2O)[C@@H](O)[C@@H]1O [Sucrose, sucrose] here?
Answer: −

Question: What about the “growth in device chamber” value (E. faecalis [2]) of the same molecule?
Answer: grew

Question: What about the “Growth, Device” value (K. pneumoniae [3]) of the same molecule?
Answer: +

Question: What about the “growth in device chamber” value (K. pneumoniae [3]) of the same molecule?
Answer: grew

Question: What about the “growth in device chamber” value (S. aureus [4]) of the same molecule?
Answer: grew

Question: And the “Growth, Device” value (S. aureus [4])?
Answer: +

Question: What about the “growth in device chamber” value (V. cholerae) of the same molecule?
Answer: grew

Question: And the “Growth, Tube” value (E. coli (UT189) [5])?
Answer: −

Question: And the “Growth, Tube” value (E. faecalis [6])?
Answer: +

Question: What about the “Growth, Tube” value (K. pneumoniae [7]) of the same molecule?
Answer: +

Question: What about the “Growth, Tube” value (S. aureus [8]) of the same molecule?
Answer: +

Question: And the “Growth, Predicted” value (E. faecalis [9])?
Answer: +

Question: What about the “Growth, Predicted” value (S. aureus [10]) of the same molecule?
Answer: +

Question: And the “Growth, Predicted” value (E. coli (UT189) [11])?
Answer: −

Question: What does the source list for OC[C@H]1O[C@H](O[C@H]2O[C@H](CO)[C@@H](O)[C@H](O)[C@H]2O)[C@H](O)[C@@H](O)[C@@H]1O [Trehalose, trehalose]?
Answer: Growth, Device (E. coli (UT189) [1]): −; growth in device chamber (E. faecalis [2]): grew; Growth, Device (K. pneumoniae [3]): +; growth in device chamber (K. pneumoniae [3]): grew; growth in device chamber (S. aureus [4]): grew; Growth, Device (S. aureus [4]): +; growth in device chamber (V. cholerae): grew; Growth, Tube (E. coli (UT189) [5]): +; Growth, Tube (E. faecalis [6]): +; Growth, Tube (K. pneumoniae [7]): +; Growth, Tube (S. aureus [8]): +; Growth, Predicted (E. faecalis [9]): +; Growth, Predicted (S. aureus [10]): +; Growth, Predicted (E. coli (UT189) [11]): +

Question: With NC[C@H]1O[C@H](O[C@H]2[C@H](O)[C@@H](O[C@H]3O[C@H](CO)[C@@H](O)[C@H](N)[C@H]3O)[C@H](N)C[C@@H]2N)[C@H](O)[C@@H](O)[C@@H]1O [kanamycin, kanamycin monosulfate] as the molecule, how does the “MIC, Device” value (E. coli (MG1655) [12]) read?
Answer: 4

Question: And the MIC (E. coli (MG1655) [12]; Escherichia coli, MG1655, Example 5, 18 h at 35° C., phenol red indicator, read-out: MIC of the wild type strain)?
Answer: 4 µg/mL

Question: And the “MIC, Device” value (E. faecalis (1131) [13])?
Answer: 128

Question: What about the “MIC, Device” value (K. pneumoniae [14]) of the same molecule?
Answer: 2

Question: And the “MIC, Device” value (P. mirabilis (HI4320) [15])?
Answer: 8

Question: What about the “MIC, Broth” value (E. faecalis (1131) [16]) of the same molecule?
Answer: 64

Question: And the “MIC, Broth” value (P. mirabilis (HI4320) [17])?
Answer: 4

Question: And the “MIC, Broth” value (K. pneumoniae [18])?
Answer: 2

Question: What about the “MIC, Broth” value (E. coli (MG1655) [19]) of the same molecule?
Answer: 8

Question: And the MIC (E. coli (MG1655) [19]; Escherichia coli, MG1655, Example 5, standard liquid broth dilution assay, read-out: MIC of the wild type strain, control broth dilution)?
Answer: 8 µg/mL

Question: What about the “effect on growth of the strain” value [20] of the same molecule?
Answer: did not have any effect

Question: And the MIC [21]?
Answer: 64 µg/mL

Question: What about the MIC [22] of the same molecule?
Answer: 128 µg/mL

Question: Which results are given for CN(C)[C@@H]1C(O)=C(C(N)=O)C(=O)[C@@]2(O)C(O)=C3C(=O)c4c(O)cccc4[C@@](C)(O)[C@H]3C[C@@H]12.Cl [tetracycline, tetracycline hydrochloride]?
Answer: MIC, Device (E. coli (MG1655) [12]): 2; MIC, Device (E. faecalis (1131) [13]): 64; MIC, Device (K. pneumoniae [14]): 8; MIC, Device (P. mirabilis (HI4320) [15]): 128; MIC, Broth (E. faecalis (1131) [16]): 32; MIC, Broth (P. mirabilis (HI4320) [17]): 256; MIC, Broth (K. pneumoniae [18]): 8; MIC, Broth (E. coli (MG1655) [19]): 1; effect on growth of the strain [20]: inhibited the growth; phenotype of the strain by breakpoint values ([20]; tetracycline breakpoints): intermediate (intermediate=2 μg/mL)

Question: With CN[C@H](CC(C)C)C(=O)N[C@H]1C(=O)N[C@@H](CC(N)=O)C(=O)N[C@H]2C(=O)N[C@H]3C(=O)N[C@H](C(=O)N[C@H](C(=O)O)c4cc(O)cc(O)c4-c4cc3ccc4O)[C@H](O)c3ccc(c(Cl)c3)Oc3cc2cc(c3O[C@@H]2O[C@H](CO)[C@@H](O)[C@H](O)[C@H]2O[C@H]2C[C@](C)(N)[C@H](O)[C@H](C)O2)Oc2ccc(cc2Cl)[C@H]1O [vancomycin, vancomycin hydrochloride] as the molecule, how does the “MIC, Device” value (K. pneumoniae [14]) read?
Answer: >1024

Question: And the “MIC, Device” value (P. mirabilis (HI4320) [15])?
Answer: >1024

Question: And the “MIC, Broth” value (P. mirabilis (HI4320) [17])?
Answer: >1024

Question: What about the “MIC, Broth” value (K. pneumoniae [18]) of the same molecule?
Answer: >1024

Question: What about the “effect on growth of the strain” value [20] of the same molecule?
Answer: did not have any effect
